Laboratory results: patent US11304962B2, “Methods of reducing risk of preterm birth” (COVIS Pharma GmbH, priority 2015, dated 2022)
In brackets after ≈: the same amount, converted by molar mass. Read-outs that look alike come from different tables or passages of the source.

Experiments:
[1] = Solubility of HPC in benzyl benzoate/castor oil mixtures; type: physicochemical; conditions: for solubility: benzyl benzoate/castor oil mixture, oil or lipid, read-out: mg HPC/mL solution (solubility)
Source text: Weight percent of BB is relative to the castor oil.

[2] = Single-dose crossover pharmacokinetic study of 17-HPC, SQ (upper anterior thigh) vs IM (gluteus maximus) injection; type: in vivo, human; conditions: for AUC(0-t) / Cmax: female, human, single dose, healthy postmenopausal women, plasma; for AUC(0-t): read-out: AUC0-t, LS Geometric Mean; for Cmax: read-out: Cmax, LS Geometric Mean
Description: An open-label, randomized, single-dose, two-period, two-treatment, four-sequence, crossover study was conducted to compare equal 250 mg doses of 17-HPC injections, 250 mg/ml given as either a 1 mL deep IM injection to the upper outer quadrant of the gluteus maximus or a 1 mL SQ injection to the upper anterior thigh. The study was conducted with 12 healthy, non-tobacco using postmenopausal adult women. The subjects were given the SQ injection in one study period and the IM injection in the other study period according to the four-sequence randomization schedule. Blood was taken at 4, 24, 48, 72, 96, 120 and 144-hours post-treatment, and plasma concentrations of 17-HPC were measured. The interval between doses was 21 days. The analytical data were used to estimate the pharmacokinetic parameters AUC0-t, Cmax, and Tmax.

[3] = Randomized bioavailability study of 17-HPC, SC injection in triceps area (1.1 or 1.2 mL) vs IM injection (1.0 mL); type: in vivo, human; conditions: for AUC(0-t) / AUC(0-inf) / Cmax / Tmax / half-life: female, human, plasma; for Cmax: healthy postmenopausal women, read-out: Cmax, geometric mean (geometric CV); for Tmax: read-out: Tmax, median; for half-life: read-out: t½, geometric mean (geometric CV) (converted)
Description: A randomized study is conducted to compare the bioavailability and injection site pain when 17-HPC, 250 mg/mL, is administered as a single 1.0 mL IM injection (250 mg) in the gluteus maximus or a 1.1 (275 mg) or 1.2 mL (300 mg) SQ injection in the triceps area of healthy post-menopausal women. Patients are randomized into two groups by route of administration. Group A receives a 1.0 mL IM injection of 17-HPC into the upper outer quadrant of the gluteus maximus. Group B receives a 1.1 or 1.2 mL SC injection into the upper outer thigh or arm (triceps area). Patient reported outcomes of injection site pain are collected to assess the safety and usability of SQ administration, either by medical staff or for self-administration of 17-HPC.
All patients have blood drawn prior to administration of 17-HPC, and at 2, 4, 8, 12, 18 and 24 hours post dose, and again at approximately the same time as dosing on days 2-7, 14, 21, and 28.

[4] = 25° C., 63.33 wt % BB relative to castor oil
[5] = 250 mg SQ thigh vs 250 mg IM gluteus maximus
[6] = subcutaneous, SQ injection 250 mg (1 mL) upper anterior thigh
[7] = IM injection 250 mg (1 mL) gluteus maximus
[8] = IM 1.0 mL (250 mg) gluteus maximus
[9] = SC 1.1 mL (275 mg) triceps area
[10] = SC 1.2 mL (300 mg) triceps area

Structure (SMILES): CCCCCC(=O)O[C@]1(C(C)=O)CC[C@H]2[C@@H]3CCC4=CC(=O)CC[C@]4(C)[C@H]3CC[C@@]21C [17-HPC, 17-alpha-hydroxyprogesterone caproate]
- Avg. HPC wt % (solubility) ([1]; 5° C., 53.01 wt % BB relative to castor oil): 18.60 wt %
- Avg. HPC wt % (solubility) ([1]; 5° C., 63.33 wt % BB relative to castor oil): 20.31 wt %
- Avg. HPC wt % (solubility) ([1]; 5° C., 69.43 wt % BB relative to castor oil): 21.62 wt %
- Avg. HPC wt % (solubility) ([1]; 5° C., 75.59 wt % BB relative to castor oil): 23.00 wt %
- Avg. HPC wt % (solubility) ([1]; 5° C., 81.79 wt % BB relative to castor oil): 24.65 wt %
- Avg. HPC wt % (solubility) ([1]; 5° C., 87.91 wt % BB relative to castor oil): 25.22 wt %
- Avg. HPC wt % (solubility) ([1]; 15° C., 53.01 wt % BB relative to castor oil): 20.49 wt %
- Avg. HPC wt % (solubility) ([1]; 15° C., 63.33 wt % BB relative to castor oil): 22.96 wt %
- Avg. HPC wt % (solubility) ([1]; 15° C., 69.43 wt % BB relative to castor oil): 24.28 wt %
- Avg. HPC wt % (solubility) ([1]; 15° C., 75.59 wt % BB relative to castor oil): 25.97 wt %
- Avg. HPC wt % (solubility) ([1]; 15° C., 81.79 wt % BB relative to castor oil): 27.32 wt %
- Avg. HPC wt % (solubility) ([1]; 15° C., 87.91 wt % BB relative to castor oil): 28.30 wt %
- Avg. HPC wt % (solubility) ([1]; 25° C., 53.01 wt % BB relative to castor oil): 24.08 wt %
- Avg. HPC wt % (solubility) [1, 4]: 27.17 wt %
- Avg. HPC wt % (solubility) ([1]; 25° C., 69.43 wt % BB relative to castor oil): 28.76 wt %
- Avg. HPC wt % (solubility) ([1]; 25° C., 75.59 wt % BB relative to castor oil): 30.62 wt %
- Avg. HPC wt % (solubility) ([1]; 25° C., 81.79 wt % BB relative to castor oil): 31.98 wt %
- Avg. HPC wt % (solubility) ([1]; 25° C., 87.91 wt % BB relative to castor oil): 33.26 wt %
- solubility data over multiple days ([1]; BB/castor oil with and without benzyl alcohol, 5, 15, 25° C., over 5 days): fairly constant
- solubility ([1]; 5 °C, 5° C., 53.01 wt % BB relative to castor oil): 200 mg/mL (≈ 467 mM)
- solubility ([1]; 5 °C, 5° C., 63.33 wt % BB relative to castor oil): 222 mg/mL (≈ 518 mM)
- solubility ([1]; 5 °C, 5° C., 69.43 wt % BB relative to castor oil): 238 mg/mL (≈ 555 mM)
- solubility ([1]; 5 °C, 5° C., 75.59 wt % BB relative to castor oil): 253 mg/mL (≈ 590 mM)
- solubility ([1]; 5 °C, 5° C., 81.79 wt % BB relative to castor oil): 273 mg/mL (≈ 637 mM)
- solubility ([1]; 5 °C, 5° C., 87.91 wt % BB relative to castor oil): 284 mg/mL (≈ 663 mM)
- solubility ([1]; 15 °C, thermodynamic from solid, 15° C., 53.01 wt % BB relative to castor oil): 220 mg/mL (≈ 513 mM)
- solubility ([1]; 15 °C, thermodynamic from solid, 15° C., 63.33 wt % BB relative to castor oil): 254 mg/mL (≈ 593 mM)
- solubility ([1]; 15 °C, thermodynamic from solid, 15° C., 69.43 wt % BB relative to castor oil): 269 mg/mL (≈ 628 mM)
- solubility ([1]; 15 °C, thermodynamic from solid, 15° C., 75.59 wt % BB relative to castor oil): 289 mg/mL (≈ 674 mM)
- solubility ([1]; 15 °C, thermodynamic from solid, 15° C., 81.79 wt % BB relative to castor oil): 306 mg/mL (≈ 714 mM)
- solubility ([1]; 15 °C, thermodynamic from solid, 15° C., 87.91 wt % BB relative to castor oil): 320 mg/mL (≈ 747 mM)
- solubility ([1]; 25 °C, 25° C., 69.43 wt % BB relative to castor oil): 321 mg/mL (≈ 749 mM)
- solubility ([1]; 25 °C, 25° C., 75.59 wt % BB relative to castor oil): 347 mg/mL (≈ 810 mM)
- solubility ([1]; 25 °C, 25° C., 81.79 wt % BB relative to castor oil): 363 mg/mL (≈ 847 mM)
- solubility ([1]; 25 °C, 25° C., 87.91 wt % BB relative to castor oil): 382 mg/mL (≈ 891 mM)
- solubility ([1]; 25 °C, thermodynamic from solid, 25° C., 53.01 wt % BB relative to castor oil): 262 mg/mL (≈ 611 mM)
- solubility [1, 4]: 303 mg/mL (≈ 707 mM)
- AUC0-t LSGM Ratio A (SQ) vs B (IM) [2, 5]: 73.85%
- Cmax LSGM Ratio A (SQ) vs B (IM) [2, 5]: 68.39%
- AUC(0-t) [2, 6]: 458 ng·h/mL
- Cmax [2, 6]: 4.2 ng/mL
- AUC(0-t) [2, 7]: 621 ng·h/mL
- Cmax [2, 7]: 6.14 ng/mL
- […]z, geometric mean (geometric CV) [3, 8]: 0.0031 (37.3) [11] 1/hr
- […]z, geometric mean (geometric CV) [3, 9]: 0.0031 (26.8) [17] 1/hr
- […]z, geometric mean (geometric CV) [3, 10]: 0.0031 (38.4) [14] 1/hr
- AUC(0-t) Least Squares Geometric Mean Ratio, Estimate ([3]; SC (1.1 mL) vs. IM (1.0 mL)): 103.64%
- AUC(inf) Least Squares Geometric Mean Ratio, Estimate ([3]; SC (1.1 mL) vs. IM (1.0 mL)): 100.71%
- Cmax Least Squares Geometric Mean Ratio, Estimate ([3]; SC (1.1 mL) vs. IM (1.0 mL)): 123.42%
- AUC(0-t) Least Squares Geometric Mean Ratio, Estimate ([3]; SC (1.1 mL) vs. SC (1.2 mL)): 94.40%
- AUC(inf) Least Squares Geometric Mean Ratio, Estimate ([3]; SC (1.1 mL) vs. SC (1.2 mL)): 91.63%
- Cmax Least Squares Geometric Mean Ratio, Estimate ([3]; SC (1.1 mL) vs. SC (1.2 mL)): 107.50%
- AUC(0-t) Least Squares Geometric Mean Ratio, Estimate ([3]; SC (1.2 mL) vs. IM (1.0 mL)): 109.78%
- AUC(inf) Least Squares Geometric Mean Ratio, Estimate ([3]; SC (1.2 mL) vs. IM (1.0 mL)): 109.91%
- Cmax Least Squares Geometric Mean Ratio, Estimate ([3]; SC (1.2 mL) vs. IM (1.0 mL)): 114.81%
- AUC(0-t) ([3]; im, 250 mg, IM 1.0 mL (250 mg) gluteus maximus, read-out: AUC(0-t), Least Squares Geometric Mean): 2680 ng·h/mL
- AUC(0-t) ([3]; im, 250 mg, IM 1.0 mL (250 mg) gluteus maximus, read-out: AUC(0-t), geometric mean (geometric CV)): 2680 ng·h/mL
- AUC(0-inf) ([3]; im, 250 mg, IM 1.0 mL (250 mg) gluteus maximus, read-out: AUC(inf), Least Squares Geometric Mean): 2910 ng·h/mL
- AUC(0-inf) ([3]; im, 250 mg, IM 1.0 mL (250 mg) gluteus maximus, read-out: AUC(inf), geometric mean (geometric CV)): 2910 ng·h/mL
- AUC(0-t) ([3]; sc, 275 mg, SC 1.1 mL (275 mg) arm, read-out: AUC(0-t), Least Squares Geometric Mean): 2770 ng·h/mL
- AUC(0-inf) ([3]; sc, 275 mg, SC 1.1 mL (275 mg) arm, read-out: AUC(inf), Least Squares Geometric Mean): 2930 ng·h/mL
- AUC(0-t) ([3]; sc, 275 mg, SC 1.1 mL (275 mg) triceps area, read-out: AUC(0-t), geometric mean (geometric CV)): 2770 ng·h/mL
- AUC(0-inf) ([3]; sc, 275 mg, SC 1.1 mL (275 mg) triceps area, read-out: AUC(inf), geometric mean (geometric CV)): 2940 ng·h/mL
- AUC(0-t) ([3]; sc, 300 mg, SC 1.2 mL (300 mg) arm, read-out: AUC(0-t), Least Squares Geometric Mean): 2940 ng·h/mL
- AUC(0-inf) ([3]; sc, 300 mg, SC 1.2 mL (300 mg) arm, read-out: AUC(inf), Least Squares Geometric Mean): 3200 ng·h/mL
- AUC(0-t) ([3]; sc, 300 mg, SC 1.2 mL (300 mg) triceps area, read-out: AUC(0-t), geometric mean (geometric CV)): 2940 ng·h/mL
- AUC(0-inf) ([3]; sc, 300 mg, SC 1.2 mL (300 mg) triceps area, read-out: AUC(inf), geometric mean (geometric CV)): 3200 ng·h/mL
- Cmax [3, 8]: 7.08 ng/mL
- Tmax [3, 8]: 120 h
- half-life [3, 8]: 220 h
- Cmax [3, 9]: 8.74 ng/mL
- Tmax [3, 9]: 24 h
- half-life [3, 9]: 223 h
- Cmax [3, 10]: 8.13 ng/mL
- Tmax [3, 10]: 48 h
- half-life [3, 10]: 225 h
